Source: patent US6313305A, “Cephalosporins” (Hoechst Marion Roussel, priority 1991, dated 2001)
In brackets after ≈: the same amount, converted by molar mass. Counter-ions that a name gives are not always drawn.

Assays:
Assay type in all cases: cell-based
[1] = test system: Enterobacteria producing cephalosporinases (20 strains); assay: In vitro activity, method of dilutions in solid medium (TABLE II): Enterobacteria producing cephalosporinases; conditions: 24 h
Method: (§1) In Vitro Activity, Method of Dilutions in Solid Medium
(§2) A series of dishes was prepared in which an equal amount of sterile nutritional medium was distributed containing increasing amounts of the test product. Then, each dish was seeded with several bacteria strains and after incubation in an oven for 24 hours at 37° C., the growth inhibition was evaluated by the absence of any bacterial development, which allowed the minimal inhibiting concentrations (M.I.C.) to be determined expressed in micrograms/ml. The results were expressed in M.I.C. 90 which is the minimum concentration of antibiotic allowing the growth of the strains studied to be inhibited by […] (TABLE II).

[2] = test system: Enterobacteria producting β lactamase with enlarged spectrum (16 strains); assay: In vitro activity, method of dilutions in solid medium (TABLE II): Enterobacteria producing β lactamase with enlarged spectrum; conditions: 24 h
Method: as §1, §2

[3] = test system: Pseudomonas Aeruginosa (39 strains); assay: In vitro activity, method of dilutions in solid medium (TABLE II): Pseudomonas aeruginosa; conditions: 24 hours at 37° C.
Method: as §1, §2

[4] = test system: oracillin-sensitive penicillin-resistants Staphylococci aureus (20 strains); assay: In vitro activity, method of dilutions in solid medium (TABLE II): oracillin-sensitive penicillin-resistant Staphylococcus aureus; conditions: 24 hours at 37° C.
Method: as §1, §2

Row | Structure (SMILES) | MIC90 [1] | MIC90 [2] | MIC90 [3] | MIC90 [4]
1 | COc1cc(C(O/N=C(\C(=O)N[C@@H]2C(=O)N3C(C(=O)[O-])=C(/C=C/C[n+]4cccc5ccccc54)CS[C@H]23)c2csc(N)n2)C(=O)O)c(Cl)c(O)c1O (stereo partly drawn) [Example 43] | 2.5 µg/mL (≈ 3.26 µM) | 1.2 µg/mL (≈ 1.56 µM) | 1.2 µg/mL (≈ 1.56 µM) | 0.3 µg/mL (≈ 0.391 µM)
2 | Nc1nc(/C(=N/OC(C(=O)O)c2cc(Cl)c(O)c(O)c2Cl)C(=O)N[C@@H]2C(=O)N3C(C(=O)[O-])=C(/C=C/C[n+]4cccc5c4CCC5)CS[C@H]23)cs1 (stereo partly drawn) [Example 27, Internal salt of (6R-(3-(E) 6α, 7β-(Z)))-1-(3-(7-(((2-amino-4-thiazolyl)-(carboxy-(2,5-dichloro-3,4-dihydroxy-phenyl)-methoxy)-imino)-acetamido)-2-carboxy-8-oxo-5-thia-1-azabicyclo[4,2,0]oct-2-en-3-yl)-2-propenyl)-6,7-dihydro-5H-pyrindinium] | 0.3 µg/mL | 10 µg/mL | 0.08 µg/mL | 5 µg/mL
3 | Nc1nc(/C(=N/OC(C(=O)O)c2cc(F)c(O)c(O)c2F)C(=O)N[C@@H]2C(=O)N3C(C(=O)[O-])=C(/C=C/C[n+]4ccn5ccccc54)CS[C@H]23)cs1 (stereo partly drawn) [Example 39, Internal Salt of (6R-(3-(E) 6α, 7β(Z)))-1-(3-(7-(((2-Amino-4-thiazolyl)(carboxy-(2,5-difluoro-3,4-dihydroxyphenyl)-methoxy)-imino)-acetamido)-2-carboxy-8-oxo-5-thia-1-azabicyclo[4,2,0]oct-2-en-3-yl)-2-propenyl)-imidazo(1,2-a)pyridinium] | 0.3 µg/mL | 2.5 µg/mL | 0.08 µg/mL | 2.5 µg/mL
